Reference: PubChem BioAssay AID2060625 (Molecular Pharmacology Branch, DTP, NCI, 2025)

Test system: 186277-243-T-J2-PDC spheroids with HUVEC/MSC, viability
Test: Anticancer human tumor 186277-243-T-J2-PDC patient-derived colon adenocarcinoma cell line growth inhibition [CLK]
Conditions: for IC50: curve of first compound; for viability, T/C: stronger effect = lower value
Outline: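 Patient-derived tumor cells grown as complex spheroids with HUVEC endothelial cells and mesenchymal stem cells, treated with drug combinations. Concentrations descend in half-log steps from near clinical Cmax, or from 10 microM if Cmax unknown.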
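Note: compound exposure lasted seven days before readout.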
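Throughout, for viability, T/C: 100% = DMSO vehicle control wells.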

Question: With `NC(=O)C(=Cn1cnc(-c2cc(C(F)(F)F)cc(C(F)(F)F)c2)n1)c1cncnc1` + CN1CCN(c2cc(C(=O)Nc3cc4cc(-c5cnn(C)c5)ccc4cn3)ccn2)CC1 as the compound, how does the IC50 (second compound 0.0316 µM) read?
Answer: Its IC50 is 127 nM.

Question: What about the IC50 (second compound 0.1 µM) of the same compound?
Answer: The IC50 was 39 nM.

Question: What about the IC50 (second compound 0.316 µM) of the same compound?
Answer: Its IC50 is < 9.49 nM.

Question: And the IC50 (second compound 1 µM)?
Answer: Its IC50 is < 9.49 nM.

Question: What about the IC50 (second compound 3.16 µM) of the same compound?
Answer: Its IC50 is < 9.49 nM.

Question: What about the IC50 (second compound 10 µM) of the same compound?
Answer: Its IC50 is < 9.49 nM.

Question: And the viability, T/C (second compound 0.0316 µM, first compound 0.00949 µM)?
Answer: Its viability, T/C is 98.3%.

Question: What about the viability, T/C (second compound 0.0316 µM, first compound 0.03 µM) of the same compound?
Answer: Its viability, T/C is 83.4%.

Question: And the viability, T/C (second compound 0.0316 µM, first compound 0.0949 µM)?
Answer: Its viability, T/C is 65.4%.

Question: And the viability, T/C (second compound 0.0316 µM, first compound 0.3 µM)?
Answer: The viability, T/C was 5.69%.

Question: What about the viability, T/C (second compound 0.0316 µM, first compound 0.949 µM) of the same compound?
Answer: The viability, T/C was 1.85%.

Question: And the viability, T/C (second compound 0.0316 µM, first compound 3 µM)?
Answer: The viability, T/C was 2.91%.

Question: What about the viability, T/C (second compound 0.1 µM, first compound 0.00949 µM) of the same compound?
Answer: Its viability, T/C is 61.6%.

Question: What about the viability, T/C (second compound 0.1 µM, first compound 0.03 µM) of the same compound?
Answer: The viability, T/C was 60.9%.

Question: What about the viability, T/C (second compound 0.1 µM, first compound 0.0949 µM) of the same compound?
Answer: Its viability, T/C is 13.1%.

Question: And the viability, T/C (second compound 0.1 µM, first compound 0.3 µM)?
Answer: The viability, T/C was 1.94%.

Question: What about the viability, T/C (second compound 0.1 µM, first compound 0.949 µM) of the same compound?
Answer: The viability, T/C was 0.71%.

Question: What about the viability, T/C (second compound 0.1 µM, first compound 3 µM) of the same compound?
Answer: Its viability, T/C is 1.36%.

Question: What about the viability, T/C (second compound 0.316 µM, first compound 0.00949 µM) of the same compound?
Answer: Its viability, T/C is 9.76%.

Question: What about the viability, T/C (second compound 0.316 µM, first compound 0.03 µM) of the same compound?
Answer: The viability, T/C was 4.11%.

Question: And the viability, T/C (second compound 0.316 µM, first compound 0.0949 µM)?
Answer: Its viability, T/C is 0.34%.

Question: And the viability, T/C (second compound 0.316 µM, first compound 0.3 µM)?
Answer: Its viability, T/C is 0.6%.

Question: What about the viability, T/C (second compound 0.316 µM, first compound 0.949 µM) of the same compound?
Answer: Its viability, T/C is 0.58%.

Question: And the viability, T/C (second compound 0.316 µM, first compound 3 µM)?
Answer: The viability, T/C was 0.92%.

Question: What about the viability, T/C (second compound 1 µM, first compound 0.00949 µM) of the same compound?
Answer: The viability, T/C was 1%.

Question: And the viability, T/C (second compound 1 µM, first compound 0.03 µM)?
Answer: The viability, T/C was 1.1%.

Question: And the viability, T/C (second compound 1 µM, first compound 0.0949 µM)?
Answer: Its viability, T/C is 0.81%.

Question: And the viability, T/C (second compound 1 µM, first compound 0.3 µM)?
Answer: Its viability, T/C is 0.47%.

Question: And the viability, T/C (second compound 1 µM, first compound 0.949 µM)?
Answer: The viability, T/C was 0.34%.

Question: What about the viability, T/C (second compound 1 µM, first compound 3 µM) of the same compound?
Answer: The viability, T/C was 3.14%.

Question: What about the viability, T/C (second compound 3.16 µM, first compound 0.00949 µM) of the same compound?
Answer: Its viability, T/C is 1.66%.

Question: And the viability, T/C (second compound 3.16 µM, first compound 0.03 µM)?
Answer: Its viability, T/C is 1.29%.

Question: What about the viability, T/C (second compound 3.16 µM, first compound 0.0949 µM) of the same compound?
Answer: Its viability, T/C is 1.77%.

Question: And the viability, T/C (second compound 3.16 µM, first compound 0.3 µM)?
Answer: The viability, T/C was 1.67%.

Question: What about the viability, T/C (second compound 3.16 µM, first compound 0.949 µM) of the same compound?
Answer: The viability, T/C was 1.12%.

Question: And the viability, T/C (second compound 3.16 µM, first compound 3 µM)?
Answer: The viability, T/C was 1.92%.

Question: What about the viability, T/C (second compound 10 µM, first compound 0.00949 µM) of the same compound?
Answer: The viability, T/C was 1.29%.

Question: And the viability, T/C (second compound 10 µM, first compound 0.03 µM)?
Answer: The viability, T/C was 1.77%.

Question: What about the viability, T/C (second compound 10 µM, first compound 0.0949 µM) of the same compound?
Answer: Its viability, T/C is 1.3%.

Question: And the viability, T/C (second compound 10 µM, first compound 0.3 µM)?
Answer: The viability, T/C was 0.74%.

Question: What about the viability, T/C (second compound 10 µM, first compound 0.949 µM) of the same compound?
Answer: Its viability, T/C is 1.71%.

Question: And the viability, T/C (second compound 10 µM, first compound 3 µM)?
Answer: The viability, T/C was 1.04%.

Question: `CC(Nc1ccc2c(c1)OCCn1cc(N3C(=O)OCC3C(F)F)nc1-2)C(N)=O` (centres undefined) + CN1CCN(c2cc(C(=O)Nc3cc4cc(-c5cnn(C)c5)ccc4cn3)ccn2)CC1 was tested. Which IC50 (second compound 0.0316 µM) did it give?
Answer: Its IC50 is 828 nM.

Question: And the IC50 (second compound 0.1 µM)?
Answer: The IC50 was 158 nM.

Question: What about the IC50 (second compound 0.316 µM) of the same compound?
Answer: The IC50 was < 31.6 nM.

Question: And the IC50 (second compound 1 µM)?
Answer: Its IC50 is < 31.6 nM.

Question: And the IC50 (second compound 3.16 µM)?
Answer: Its IC50 is < 31.6 nM.

Question: What about the IC50 (second compound 10 µM) of the same compound?
Answer: Its IC50 is < 31.6 nM.

Question: What about the viability, T/C (second compound 0.0316 µM, first compound 0.0316 µM) of the same compound?
Answer: Its viability, T/C is 87.7%.

Question: And the viability, T/C (second compound 0.0316 µM, first compound 0.1 µM)?
Answer: Its viability, T/C is 94.8%.

Question: What about the viability, T/C (second compound 0.0316 µM, first compound 0.316 µM) of the same compound?
Answer: The viability, T/C was 59.2%.

Question: And the viability, T/C (second compound 0.0316 µM, first compound 1 µM)?
Answer: The viability, T/C was 55.8%.

Question: And the viability, T/C (second compound 0.0316 µM, first compound 3.16 µM)?
Answer: Its viability, T/C is 46.4%.

Question: And the viability, T/C (second compound 0.0316 µM, first compound 10 µM)?
Answer: The viability, T/C was 42.4%.

Question: And the viability, T/C (second compound 0.1 µM, first compound 0.0316 µM)?
Answer: The viability, T/C was 71.8%.

Question: And the viability, T/C (second compound 0.1 µM, first compound 0.1 µM)?
Answer: Its viability, T/C is 54.4%.

Question: And the viability, T/C (second compound 0.1 µM, first compound 0.316 µM)?
Answer: Its viability, T/C is 42.3%.

Question: And the viability, T/C (second compound 0.1 µM, first compound 1 µM)?
Answer: The viability, T/C was 30.4%.

Question: What about the viability, T/C (second compound 0.1 µM, first compound 3.16 µM) of the same compound?
Answer: The viability, T/C was 19.4%.

Question: And the viability, T/C (second compound 0.1 µM, first compound 10 µM)?
Answer: Its viability, T/C is 13.4%.

Question: And the viability, T/C (second compound 0.316 µM, first compound 0.0316 µM)?
Answer: Its viability, T/C is 20.5%.

Question: What about the viability, T/C (second compound 0.316 µM, first compound 0.1 µM) of the same compound?
Answer: The viability, T/C was 17.4%.

Question: And the viability, T/C (second compound 0.316 µM, first compound 0.316 µM)?
Answer: Its viability, T/C is 7.85%.

Question: And the viability, T/C (second compound 0.316 µM, first compound 1 µM)?
Answer: The viability, T/C was 3.43%.

Question: And the viability, T/C (second compound 0.316 µM, first compound 3.16 µM)?
Answer: Its viability, T/C is 2.25%.

Question: What about the viability, T/C (second compound 0.316 µM, first compound 10 µM) of the same compound?
Answer: The viability, T/C was 1.31%.

Question: And the viability, T/C (second compound 1 µM, first compound 0.0316 µM)?
Answer: Its viability, T/C is 0.25%.

Question: And the viability, T/C (second compound 1 µM, first compound 0.1 µM)?
Answer: Its viability, T/C is 0.73%.

Question: And the viability, T/C (second compound 1 µM, first compound 0.316 µM)?
Answer: The viability, T/C was 0.91%.

Question: And the viability, T/C (second compound 1 µM, first compound 1 µM)?
Answer: The viability, T/C was 0.46%.

Question: What about the viability, T/C (second compound 1 µM, first compound 3.16 µM) of the same compound?
Answer: Its viability, T/C is 0.47%.

Question: What about the viability, T/C (second compound 1 µM, first compound 10 µM) of the same compound?
Answer: The viability, T/C was 1.48%.

Question: And the viability, T/C (second compound 3.16 µM, first compound 0.0316 µM)?
Answer: Its viability, T/C is 1.24%.

Question: What about the viability, T/C (second compound 3.16 µM, first compound 0.1 µM) of the same compound?
Answer: Its viability, T/C is 0.72%.

Question: What about the viability, T/C (second compound 3.16 µM, first compound 0.316 µM) of the same compound?
Answer: Its viability, T/C is 1.34%.

Question: What about the viability, T/C (second compound 3.16 µM, first compound 1 µM) of the same compound?
Answer: Its viability, T/C is 0.69%.

Question: And the viability, T/C (second compound 3.16 µM, first compound 3.16 µM)?
Answer: The viability, T/C was 0.82%.

Question: What about the viability, T/C (second compound 3.16 µM, first compound 10 µM) of the same compound?
Answer: Its viability, T/C is 0.74%.

Question: What about the viability, T/C (second compound 10 µM, first compound 0.0316 µM) of the same compound?
Answer: The viability, T/C was 0.96%.

Question: And the viability, T/C (second compound 10 µM, first compound 0.1 µM)?
Answer: Its viability, T/C is 1.39%.

Question: What about the viability, T/C (second compound 10 µM, first compound 0.316 µM) of the same compound?
Answer: Its viability, T/C is 0.74%.

Question: And the viability, T/C (second compound 10 µM, first compound 1 µM)?
Answer: Its viability, T/C is 0.87%.

Question: And the viability, T/C (second compound 10 µM, first compound 3.16 µM)?
Answer: The viability, T/C was 0.87%.

Question: And the viability, T/C (second compound 10 µM, first compound 10 µM)?
Answer: The viability, T/C was 0.69%.
